# Reference: patent US10251892B2, “Bicyclic heterocycles as FGFR4 inhibitors” (Incyte Corporation, priority 2015, dated 2019)
# Target: FGFR3 enzyme (Homo sapiens (Human), UniProt P22607)
# Experiment: FGFR Enzymatic Assay (peptide phosphorylation, FRET), FGFR3
# Assay type: biochemical
# Conditions: IC50 ratio showing FGFR3 selectivity; pre-incubated for 4 hours
# Experimental: The inhibitor potency of the exemplified compounds was measured in an enzyme assay that measures peptide phosphorylation using FRET measurements to detect product formation. Inhibitors were serially diluted in DMSO and a volume of 0.5 μL was transferred to the wells of a 384-well plate.
# GraphPad prism3 was used to analyze the data.
# Chain of FGFR3 enzyme (P22607 23-806): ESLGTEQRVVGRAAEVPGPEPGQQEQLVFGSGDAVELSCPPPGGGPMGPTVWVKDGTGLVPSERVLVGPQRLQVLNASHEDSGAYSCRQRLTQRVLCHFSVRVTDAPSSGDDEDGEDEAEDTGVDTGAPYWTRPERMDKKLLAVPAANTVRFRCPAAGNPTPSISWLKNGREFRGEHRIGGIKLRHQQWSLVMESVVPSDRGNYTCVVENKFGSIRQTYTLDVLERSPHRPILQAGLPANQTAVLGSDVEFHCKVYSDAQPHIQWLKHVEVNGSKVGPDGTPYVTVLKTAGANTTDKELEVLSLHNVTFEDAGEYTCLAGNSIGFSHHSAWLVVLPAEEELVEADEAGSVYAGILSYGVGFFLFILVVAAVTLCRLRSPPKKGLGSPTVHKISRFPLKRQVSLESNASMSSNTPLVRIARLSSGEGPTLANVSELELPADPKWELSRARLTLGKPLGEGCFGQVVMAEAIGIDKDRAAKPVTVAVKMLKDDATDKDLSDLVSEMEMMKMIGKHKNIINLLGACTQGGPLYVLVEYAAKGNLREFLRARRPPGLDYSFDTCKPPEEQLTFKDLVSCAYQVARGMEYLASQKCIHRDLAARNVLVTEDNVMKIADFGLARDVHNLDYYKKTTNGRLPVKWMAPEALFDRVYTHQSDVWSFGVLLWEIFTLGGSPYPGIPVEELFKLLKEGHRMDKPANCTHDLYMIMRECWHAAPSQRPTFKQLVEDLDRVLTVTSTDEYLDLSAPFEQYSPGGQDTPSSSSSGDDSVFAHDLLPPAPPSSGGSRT
Compound,FGFR1/FGFR3,FGFR4/FGFR3
"COc1cc(OC)c(F)c(N2Cc3cnc(-c4cn(C)nc4C)cc3N(c3ccc(-c4nnc(C)o4)cc3)C2=O)c1F [Example 115, 3-(2,6-difluoro-3,5-dimethoxyphenyl)-7-(1,3-dimethyl-1H-pyrazol-4-yl)-1-(4-(5-methyl-1,3,4-oxadiazol-2-yl)phenyl)-3,4-dihydropyrido[4,3-d]pyrimidin-2(1H)-one]",>3,>5
"COC(=O)N1CCC(N2C(=O)N(c3c(F)c(OC)cc(OC)c3F)Cc3cnc(-c4cn(C)nc4C)cc32)CC1 [Example 122, Methyl 4-(3-(2,6-difluoro-3,5-dimethoxyphenyl)-7-(1,3-dimethyl-1H-pyrazol-4-yl)-2-oxo-3,4-dihydropyrido[4,3-d]pyrimidin-1(2H)-yl)piperidine-1-carboxylate]",>5,>5
"COC(=O)Nc1ccc(N2C(=O)N(c3c(F)c(OC)cc(OC)c3F)Cc3cnc(-c4cn(C)nc4C)cc32)cc1 [Example 123, Methyl 4-(3-(2,6-difluoro-3,5-dimethoxyphenyl)-7-(1,3-dimethyl-1H-pyrazol-4-yl)-2-oxo-3,4-dihydropyrido[4,3-d]pyrimidin-1(2H)-yl)phenylcarbamate]",>5,>3
"COc1cc(OC)c(F)c(N2Cc3cnc(-c4cn(C)nc4C)cc3N(Cc3cnn(C4CC4)c3)C2=O)c1F [Example 124, 1-((1-cyclopropyl-1H-pyrazol-4-yl)methyl)-3-(2,6-difluoro-3,5-dimethoxyphenyl)-7-(1,3-dimethyl-1H-pyrazol-4-yl)-3,4-dihydropyrido[4,3-d]pyrimidin-2(1H)-one]",>10,>10
"COc1cc(OC)c(F)c(N2Cc3cnc(-c4cn(C)nc4C)cc3N(Cc3cnn(CC#N)c3)C2=O)c1F [Example 125, 2-(4-((3-(2,6-difluoro-3,5-dimethoxyphenyl)-7-(1,3-dimethyl-1H-pyrazol-4-yl)-2-oxo-3,4-dihydropyrido[4,3-d]pyrimidin-1(2H)-yl)methyl)-1H-pyrazol-1-yl)acetonitrile]",>5,>5
"COc1cc(OC)c(F)c(N2Cc3cnc(-c4cn(C)nc4C)cc3N(c3cn[nH]c3)C2=O)c1F [Example 129, 3-(2,6-difluoro-3,5-dimethoxyphenyl)-7-(1,3-dimethyl-1H-pyrazol-4-yl)-1-(1H-pyrazol-4-yl)-3,4-dihydropyrido[4,3-d]pyrimidin-2(1H)-one]",>5,>10
"COc1cc(OC)c(F)c(N2Cc3cnc(-c4cn(C)nc4C)cc3N(c3cnn(C4CC4)c3)C2=O)c1F [Example 130, 1-(1-cyclopropyl-1H-pyrazol-4-yl)-3-(2,6-difluoro-3,5-dimethoxyphenyl)-7-(1,3-dimethyl-1H-pyrazol-4-yl)-3,4-dihydropyrido[4,3-d]pyrimidin-2(1H)-one]",>5,>5
"CCn1cc(N2C(=O)N(c3c(F)c(OC)cc(OC)c3F)Cc3cnc(-c4cn(C)nc4C)cc32)cn1 [Example 131, 3-(2,6-difluoro-3,5-dimethoxyphenyl)-7-(1,3-dimethyl-1H-pyrazol-4-yl)-1-(1-ethyl-1H-pyrazol-4-yl)-3,4-dihydropyrido[4,3-d]pyrimidin-2(1H)-one]",>3,>10
"CCCn1cc(N2C(=O)N(c3c(F)c(OC)cc(OC)c3F)Cc3cnc(-c4cn(C)nc4C)cc32)cn1 [Example 132, 3-(2,6-difluoro-3,5-dimethoxyphenyl)-7-(1,3-dimethyl-1H-pyrazol-4-yl)-1-(1-propyl-1H-pyrazol-4-yl)-3,4-dihydropyrido[4,3-d]pyrimidin-2(1H)-one]",>3,>5
"COc1cc(OC)c(F)c(N2Cc3cnc(-c4cn(C)nc4C)cc3N(c3ccc4cn[nH]c4c3)C2=O)c1F [Example 133, 3-(2,6-difluoro-3,5-dimethoxyphenyl)-7-(1,3-dimethyl-1H-pyrazol-4-yl)-1-(1H-indazol-6-yl)-3,4-dihydropyrido[4,3-d]pyrimidin-2(1H)-one]",>3,>5
"COc1cc(OC)c(F)c(N2Cc3cnc(-c4cn(C)nc4C)cc3N(c3ccc4[nH]ncc4c3)C2=O)c1F [Example 134, 3-(2,6-difluoro-3,5-dimethoxyphenyl)-7-(1,3-dimethyl-1H-pyrazol-4-yl)-1-(1H-indazol-5-yl)-3,4-dihydropyrido[4,3-d]pyrimidin-2(1H)-one]",>3,>5
"COc1cc(OC)c(F)c(N2Cc3cnc(-c4ccc(C5(C#N)CCC5)nc4)cc3N(c3ccncn3)C2=O)c1F [Example 135, 1-(5-(3-(2,6-difluoro-3,5-dimethoxyphenyl)-2-oxo-1-(pyrimidin-4-yl)-1,2,3,4-tetrahydropyrido[4,3-d]pyrimidin-7-yl)pyridin-2-yl)cyclobutanecarbonitrile]",>5,>10
"COc1cc(OC)c(F)c(N2Cc3cnc(-c4cn(CCCN5CCOCC5)nc4C)cc3C3(CC3)C2=O)c1F [Example 146, 2′-(2,6-difluoro-3,5-dimethoxyphenyl)-6′-(3-methyl-1-(3-morpholinopropyl)-1H-pyrazol-4-yl)-1′H-spiro[cyclopropane-1,4′-[2,7]naphthyridin]-3′(2′H)-one]",>10,>5
"COc1cc(OC)c(F)c(N2Cc3cnc(-c4cnn(C5CCN(S(C)(=O)=O)C5)c4)cc3C3(CC3)C2=O)c1F (stereo not drawn) [Example 147, 2′-(2,6-difluoro-3,5-dimethoxyphenyl)-6′-(1-(1-(methylsulfonyl)pyrrolidin-3-yl)-1H-pyrazol-4-yl)-1′H-spiro[cyclopropane-1,4′-[2,7]naphthyridin]-3′(2′H)-one]",>10,>3
"COc1cc(OC)c(F)c(N2Cc3cnc(-c4cnn(CCC5CCN(S(C)(=O)=O)CC5)c4)cc3C3(CC3)C2=O)c1F [Example 148, 2′-(2,6-difluoro-3,5-dimethoxyphenyl)-6′-(1-(2-(1-(methylsulfonyl)piperidin-4-yl)ethyl)-1H-pyrazol-4-yl)-1′H-spiro[cyclopropane-l,4′-[2,7]naphthyridin]-3′(2′H)-one]",>10,>3
"COc1cc(OC)c(F)c(N2Cc3cnc(-c4cnn(C5(C#N)CCC5)c4C)cc3C3(CC3)C2=O)c1F [Example 149, 1-(4-(2′-(2,6-difluoro-3,5-dimethoxyphenyl)-3′-oxo-2′,3′-dihydro-1′H-spiro[cyclopropane-1,4′-[2,7]naphthyridine]-6′-yl)-5-methyl-1H-pyrazol-1-yl)cyclobutanecarbonitrile]",>5,>3
"COc1cc(OC)c(F)c(N2Cc3cnc(-c4cnn(C5CCN(C(C)=O)C5)c4)cc3C3(CC3)C2=O)c1F (stereo not drawn) [Example 150, 6′-(1-(1-acetylpyrrolidin-3-yl)-1H-pyrazol-4-yl)-2′-(2,6-difluoro-3,5-dimethoxyphenyl)-1′H-spiro[cyclopropane-1,4′-[2,7]naphthyridin]-3′(2′H)-one]",>5,>5
"COc1cc(OC)c(F)c(N2Cc3cnc(-c4cnn(CCCN5CCOCC5)c4)cc3C3(CC3)C2=O)c1F [Example 151, 2′-(2,6-difluoro-3,5-dimethoxyphenyl)-6′-(1-(3-morpholinopropyl)-1H-pyrazol-4-yl)-1′H-spiro[cyclopropane-1,4′-[2,7]naphthyridin]-3′(2′H)-one]",>5,>5
"COc1cc(OC)c(F)c(N2Cc3cnc(-c4cnn(CCN5CCC(OC)CC5)c4)cc3C3(CC3)C2=O)c1F [Example 152, 2′-(2,6-difluoro-3,5-dimethoxyphenyl)-6′-(1-(2-(4-methoxypiperidin-1-yl)ethyl)-1H-pyrazol-4-yl)-1′H-spiro[cyclopropane-1,4′-[2,7]naphthyridin]-3′(2′H)-one]",>5,>3
"COc1cc(OC)c(F)c(N2Cc3cnc(-c4cn(CC#N)nc4C)cc3C3(CC3)C2=O)c1F [Example 153, 2-(4-(2′-(2,6-difluoro-3,5-dimethoxyphenyl)-3′-oxo-2′,3′-dihydro-1′H-spiro[cyclopropane-1,4′-[2,7]naphthyridine]-6′-yl)-3-methyl-1H-pyrazol-1-yl)acetonitrile]",>5,>3
"COc1cc(OC)c(F)c(N2Cc3cnc(-c4cn(C5CCN(CC#N)C5)nc4C)cc3C3(CC3)C2=O)c1F (stereo not drawn) [Example 154, 2-(3-(4-(2′-(2,6-difluoro-3,5-dimethoxyphenyl)-3′-oxo-2′,3′-dihydro-1′H-spiro[cyclopropane-1,4′-[2,7]naphthyridine]-6′-yl)-3-methyl-1H-pyrazol-1-yl)pyrrolidin-1-yl)acetonitrile]",>5,>3
"COc1cc(OC)c(F)c(N2Cc3cnc(-c4cn(Cc5cccnc5)nc4C)cc3C3(CC3)C2=O)c1F [Example 155, 2′-(2,6-difluoro-3,5-dimethoxyphenyl)-6′-(3-methyl-1-(pyridin-3-ylmethyl)-1H-pyrazol-4-yl)-1′H-spiro[cyclopropane-1,4′-[2,7]naphthyridin]-3′(2′H)-one]",>5,>1
"COc1cc(OC)c(F)c(N2Cc3cnc(-c4cn(CCC#N)nc4C)cc3C3(CC3)C2=O)c1F [Example 156, 3-(4-(2′-(2,6-difluoro-3,5-dimethoxyphenyl)-3′-oxo-2′,3′-dihydro-1′H-spiro[cyclopropane-1,4′-[2,7]naphthyridine]-6′-yl)-3-methyl-1H-pyrazol-1-yl)propanenitrile]",>5,>1
"COc1cc(OC)c(F)c(N2Cc3cnc(-c4cnn(CCN5CCOCC5)c4)cc3C3(CC3)C2=O)c1F [Example 157, 2′-(2,6-difluoro-3,5-dimethoxyphenyl)-6′-(1-(2-morpholinoethyl)-1H-pyrazol-4-yl)-1′H-spiro[cyclopropane-1,4′-[2,7]naphthyridin]-3′(2′H)-one]",>5,>3
